Tested on: IL-1β
Assay: IL-1β release and expression in human islets exposed to leptin
Assay type: cell-based
Procedure: Islet isolation and cell culture. Islets were isolated from pancreases of ten organ donors at the Department of Surgery, University of Geneva Medical Center, as described (32-34). The islet purity was >95%, as judged by dithizone staining (if this degree of purity was not primarily achieved by routine isolation, islets were handpicked). […] For long-term in vitro studies, the islets were cultured on extracellular matrix-coated plates derived from bovine corneal endothelial cells (Novamed Ltd., Jerusalem, Israel), allowing the cells to attach to the dishes and spread, preserving their functional integrity (7;35). Islets were cultured in CMRL 1066 medium containing 100 U/ml penicillin, 100 μg/ml streptomycin and 10% fetal calf serum (Invitrogen Corporation, Paisley, U.K.), hereafter referred to as culture medium. Two days after plating, when most islets were attached and began to flatten, the medium was changed to culture medium containing 5.5, 11.1 or 33.3 mM glucose. In some experiments, islets were additionally cultured with 5, 10 or 500 nM rh leptin (PeproTech, London, UK), 500 ng/ml rh IL-1Ra (R&D Systems Inc., Minneapolis, Minn.) or 50 nM small interfering RNA (siRNA) as described below.
Detection of IL-1Ra and IL-1β expressing cells. Pancreases from routine necropsies were immersion-fixed in formalin, followed by paraffin embedding. In parallel, isolated human were cultured in a suspension for 48 hours and exposed to 10 nM leptin or 33.3 mM glucose, islets were fixed in Bouin solution for 15 min, resuspended in 40 μl of 2% melted agarose in PBS (40° C.), followed by rapid centrifugation and paraffin embedding. Sections were deparaffinized, rehydrated and then incubated in methanol for 4 min. Human islets cultured on extracellular matrix for 4 days were washed in PBS, fixed in 4% paraformaldehyde (30 min, room temperature) followed by permeabilization with 0.5% triton X-100 (4 min, room temperature). Pancreas and islet sections and cultured cells were double-labeled for IL-1Ra or IL-1β and insulin, CD68, glucagon or somatostatin by 1 h of exposure to 10% bovine serum albumin followed by incubation (1 h, 37° C.) with biotinylated goat anti-IL-1Ra or mouse anti-IL-1β antibodies (R&D Systems Inc.). […]
RNA extraction and RT-PCR. […] PCR conditions were: denaturation for 30 seconds at 94° C., annealing for 30 seconds at 60° C., and elongation for 30 seconds at 72° C., followed for real time PCR by quantification for 5 seconds at 82° C.; repetition for 40 cycles. […] For quantitative analysis, we used the LightCycler quantitative PCR system (Roche) and performed quantitative PCR with a commercial kit (LightCycler-DNA Master SYBR Green I; Roche). […]

## leptin: rh leptin (PeproTech); protein encoded by the ob gene
10 nM leptin, 48 hours
  IL-1β expression in β-cells (triple immunostaining): induced IL-1β expression in TUNEL-positive β-cells
leptin
  IL-1β RNA expression of islets (quantitative RT-PCR): not significantly changed
leptin, 15 hours
  IL-1β release into culture medium: increased IL-1β release
leptin, 48 hours
  IL-1β release into culture medium: remained increased
